These results are taken from patent publication US7910612B2, “4-oxy-N-[1,3,4]-thiadiazol-2-yl-benzene sulfonamides, pharmaceutical compositions and methods for their therapeutic use” (Sanofi-Aventis, priority 2005, dated 2011).

Each structure is given as a SMILES string.

The target in this assay is T1, human PPARgamma (Homo sapiens, UniProt P37231).
T1 construct: amino acids 1152-Y475; expressed in transfected cells; host or cells: HEK (human embryonic kidney) cells, transiently transfected with pcDNA3-GAL4-humanPPARgammaLBD
T1 sequence (P37231 182-477 isoform P37231-2 limits assumed): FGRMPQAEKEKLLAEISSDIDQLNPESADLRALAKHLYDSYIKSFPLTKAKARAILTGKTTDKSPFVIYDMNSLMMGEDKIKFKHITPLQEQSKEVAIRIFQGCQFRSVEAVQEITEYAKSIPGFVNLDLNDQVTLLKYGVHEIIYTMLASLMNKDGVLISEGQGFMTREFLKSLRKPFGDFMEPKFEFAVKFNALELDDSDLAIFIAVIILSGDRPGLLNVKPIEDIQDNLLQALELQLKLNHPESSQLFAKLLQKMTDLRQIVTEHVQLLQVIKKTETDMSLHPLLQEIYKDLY
The assay is described as follows: cellular PPARgamma assay (transiently transfected HEK cells, luciferase reporter). It is filed as cell-based. From the text: A transient transfection system is employed to determine the cellular PPARgamma activity of PPAR agonists. It is based on the use of a luciferase reporter plasmid (pGL3basic-5xGAL4-TK) and of a PPARgamma expression plasmid (pcDNA3-GAL4-humanPPARgammaLBD). Both plasmids are transiently transfected into human embryonic kidney cells (HEK cells). There is then expression in these cells of the fusion protein GAL4-humanPPARgammaLBD which binds to the GAL4 binding sites of the reporter plasmid. In the presence of a PPARgamma-active ligand, the activated fusion protein GAL4-humanPPARgammaLBD induces expression of the luciferase reporter gene, which can be detected in the form of a chemiluminescence signal after addition of a luciferase substrate. As a difference from the stably transfected PPARalpha reporter cell line, in the cellular PPARgamma assay the two components (luciferase reporter plasmid and PPARgamma expression plasmid) are transiently transfected into HEK cells because stable and permanent expression of the PPARgamma fusion protein is cytotoxic.
The luciferase reporter plasmid pGL3basic-5xGAL4-TK is based on the vector pGL3basic from Promega. The reporter plasmid is prepared by cloning five binding sites of the yeast transcription factor GAL4 (each binding site with the sequence 5′-CTCGGAGGACAGTACTCCG-3′), together with a 160 bp-long thymidine kinase promoter section (Genbank Accession #AF027128) 5′-upstream into pGL3basic. 3′-downstream of the thymidine kinase promoter is the complete luciferase gene from Photinus pyralis (Genbank Accession #M15077) which is already a constituent of the plasmid pGL3basic used. The cloning and sequencing of the reporter plasmid pGL3basic-5xGAL4-TK took place in analogy to the description in Sambrook J. et. al. (Molecular cloning, Cold Spring Harbor Laboratory Press, 1989).
The PPARgamma expression plasmid pcDNA3-GAL4-humanPPARgammaLBD was prepared by first cloning the cDNA coding for amino acids 1-147 of the yeast transcription factor GAL4 (Genbank Accession #P04386) into the plasmid pcDNA3 (from Invitrogen) 3′-downstream of the cytomegalovirus promoter. Subsequently, the cDNA of the ligand-binding domain (LBD) of the human PPARgamma receptor (amino acids […]; Accession #g1480099) 3′-downstream of the GAL4 DNA binding domain. Cloning and sequencing of the PPARgamma expression plasmid pcDNA3-GAL4-humanPPARgammaLBD again took place in analogy to the description in Sambrook J. et. al. (Molecular cloning, Cold Spring Harbor Laboratory Press, 1989). Besides the luciferase reporter plasmid pGL3basic-5xGAL4-TK and the PPARgamma expression plasmid pcDNA3-GAL4-humanPPARgammaLBD, also used for the cellular PPARgamma assay are the reference plasmid pRL-CMV (from Promega) and the plasmid pBluescript SK(+) from Stratagene. All four plasmids were prepared using a plasmid preparation kit from Qiagen, which ensured a plasmid quality with a minimal endotoxin content, before transfection into HEK cells.
The activity of PPARgamma agonists was then determined in a 4-day assay which is described below. Before the transfection, HEK cells are cultivated in DMEM (#41965-039, Invitrogen) which is mixed with the following additions: 10% FCS (#16000-044, Invitrogen), 1% penicillin-streptomycin solution (#15140-122, Invitrogen) and 2 mM L-glutamine (#25030-024, Invitrogen).
Firstly, solution A, a transfection mixture which contains all four plasmids previously described in addition to DMEM, is prepared. The following amounts are used to make up 3 ml of solution A for each 96 well microtiter plate for an assay: 2622 μl of antibiotic- and serum-free DMEM (#41965-039, Invitrogen), 100 μl of reference plasmid pRL-CMV (1 ng/μl), 100 μl of luciferase reporter plasmid pGL3basic-5xGAL4-TK (10 ng/μl), 100 μl of PPARgamma expression plasmid pcDNA3-GAL4-humanPPARgammaLBD (100 ng/μl) and 78 μl of plasmid pBluescript SK(+) (500 ng/μl). […]
In turn, `Cc1nc(-c2ccc(C(F)(F)F)cc2)sc1COc1ccc(S(=O)(=O)Nc2nnc(C(C)C)s2)cc1` [Example 1, N-(5-Isopropyl-[1,3,4]thiadiazol-2-yl)-4-[4-methyl-2-(4-trifluoromethyl-phenyl)-thiazol-5-ylmethoxy]-benzenesulfonamide] came in with an EC50 of 50 nM.

In turn, `CC(C)c1nnc(NS(=O)(=O)c2ccc(OCc3ccc(Oc4ccc(C(F)(F)F)cc4)cc3)cc2)s1` [Example 4, N-(5-Isopropyl-[1,3,4]thiadiazol-2-yl)-4-[4-(4-trifluoromethyl-phenoxy)-benzyloxy]-benzenesulfonamide] displayed an EC50 of 460 nM. This EC50 is about 9.2-fold higher than that of the compound before.

For `COc1ccc(-c2nc(COc3ccc(S(=O)(=O)Nc4nnc(C(C)C)s4)cc3)co2)cc1` [Example 13, N-(5-Isopropyl-[1,3,4]thiadiazol-2-yl)-4-[2-(4-methoxy-phenyl)-oxazol-4-ylmethoxy]-benzenesulfonamide], the EC50 stood at 1970 nM.

For `COc1ccc2c(COc3ccc(S(=O)(=O)Nc4nnc(C(C)C)s4)cc3)coc2c1` [Example 3, N-(5-Isopropyl-[1,3,4]thiadiazol-2-yl)-4-(6-methoxy-benzofuran-3-ylmethoxy)-benzenesulfonamide], the response was half-maximal at 460 nM (EC50).

As for `COc1ccc(-c2nc(COc3ccc(S(=O)(=O)Nc4nnc(C(C)C)s4)cc3)no2)cc1` [Example 9, N-(5-Isopropyl-[1,3,4]thiadiazol-2-yl)-4-[5-(4-methoxy-phenyl)-[1,2,4]oxadiazol-3-ylmethoxy]-benzenesulfonamide], the EC50 amounted to 50 nM.

Turning to `CCc1oc(-c2cccc(C(F)(F)F)c2)nc1COc1ccc(S(=O)(=O)Nc2nnc(C(C)C)s2)cc1` [Example 14, 4-[5-Ethyl-2-(3-trifluoromethyl-phenyl)-oxazol-4-ylmethoxy]-N-(5-isopropyl-[1,3,4]thiadiazol-2-yl)-benzenesulfonamide], the EC50 turned out to be 1 nM.
